Results published in patent US20040132707A1, “Catecholate beta-lactam conjugates, method for producing the same and the use thereof” (Gruenenthal GmbH, priority 2001, published 2004).
Values after ≈ are worked out from the molar mass of the structure shown.

Key:
Assay in all cases: Microdilution MIC assay (NCCLS M7-A)
Type in all cases: cell-based
[1] = tested on: Escherichia coli ATCC 25922; conditions: strain ATCC 25922
Protocol: (§1) The antibacterial activity was tested by a microdilution assay according to National Committee for Clinical Laboratory Standards, 1998, Methods for dilution antimicrobial susceptibility tests for bacteria that grow aerobically, Approved standard M7-A, NCCLS, Villanova, Pa.
(§2) The minimal inhibition concentrations (MICs) were determined for the following bacterial strains: The Gram-negative strains Pseudomonas aeruginosa SG 137, ATCC 27853, Escherichia coli ATCC 25922, Klebsiella pneumoniae ATCC 10031, Stenotrophomonas maltophilia GN 12873, Serratia marcescens SG 621 as well as for the Gram-positive strain Staphylococcus aureus SG 511.

[2] = tested on: Klebsiella pneumoniae ATCC 10031; conditions: strain ATCC10031
Protocol: as §1, §2

[3] = tested on: Pseudomonas aeruginosa ATCC 27853; conditions: strain ATCC 27853
Protocol: as §1, §2

[4] = tested on: Pseudomonas aeruginosa SG 137; conditions: strain SG137
Protocol: as §1, §2

[5] = tested on: Serratia marcescens SG 621; conditions: strain SG621
Protocol: as §1, §2

[6] = tested on: Staphylococcus aureus SG 511; conditions: strain SG511
Protocol: as §1, §2

[7] = tested on: Stenotrophomonas maltophilia GN 12873; conditions: strain GN12873
Protocol: as §1, §2

| SMILES | MIC E. coli ATCC 25922 [1] | MIC Klebsiella pneumoniae ATCC10031 [2] | MIC Pseudomonas aeruginosa ATCC 27853 [3] | MIC Pseudomonas aeruginosa SG137 [4] | MIC Serratia marc. SG621 [5] | MIC Staph. aureus SG511 [6] | MIC Stenotroph. maltoph. GN12873 [7] |
| --- | --- | --- | --- | --- | --- | --- | --- |
| COC(=O)Oc1cccc(C(=O)N(C)CCCN(CC(=O)NC(C(=O)NC2C(=O)N3C2SC(C)(C)C3C(=O)O)c2ccccc2)C(=O)c2cccc(OC(=O)OC)c2OC(=O)OC)c1OC(=O)OC (stereo not shown) [Example 1, N-[3,7-Bis-(2,3-dimethoxycarbonyloxybenzoyl)-3,7-diaza-octanoyl]-ampicillin] | 0.062 µg/mL (≈ 0.0631 µM) | 0.008 µg/mL (≈ 0.00815 µM) | 0.031 µg/mL (≈ 0.0316 µM) | 0.031 µg/mL (≈ 0.0316 µM) | 0.078 µg/mL (≈ 0.0794 µM) | 10 µg/mL (≈ 10.2 µM) | 0.062 µg/mL (≈ 0.0631 µM) |
| CC(=O)Oc1cccc(C(=O)NCCCCCCN(CCCCCCN(CC(=O)NC(C(=O)NC2C(=O)N3C2SC(C)(C)C3C(=O)O)c2ccccc2)C(=O)c2cccc(OC(C)=O)c2OC(C)=O)C(=O)c2cccc(OC(C)=O)c2OC(C)=O)c1OC(C)=O (stereo not shown) [Example 2, N-[3,10,17-Tris-(2,3-diacetoxybenzoyl)-3,10,17-triaza-heptadecanoyl]-ampicillin] | 0.4 µg/mL (≈ 0.316 µM) | 0.4 µg/mL (≈ 0.316 µM) | 3.125 µg/mL (≈ 2.47 µM) | <0.05 µg/mL |  | 6.25 µg/mL (≈ 4.94 µM) |  |
| COC(=O)Oc1cccc(C(=O)N(CCN(CCn2c(=O)oc3c(OC(=O)OC)cccc3c2=O)CCn2c(=O)oc3c(OC(=O)OC)cccc3c2=O)CC(=O)NC(C(=O)NC2C(=O)N3C2SC(C)(C)C3C(=O)O)c2ccccc2)c1OC(=O)OC (stereo not shown) [Example 3, N-[6-Bis[2-(8-methoxycarbonyloxy-benzoxazin-2,4-dion-3-yl)-ethyl]-3-[2,3-di-(methoxycarbonyloxy)-benzoyl]-3,6-diaza-hexanoyl]-ampicillin] | 0.2 µg/mL (≈ 0.163 µM) | <0.05 µg/mL | 0.78 µg/mL (≈ 0.635 µM) | 0.1 µg/mL (≈ 0.0814 µM) | 0.2 µg/mL (≈ 0.163 µM) | 12.5 µg/mL (≈ 10.2 µM) | 0.4 µg/mL (≈ 0.326 µM) |
| CC(=O)Oc1cccc(C(=O)NCCCCCCN(CCCCCCN(CC(=O)NC(C(=O)NC2C(=O)N3C(C(=O)O)=C(Cl)CSC23)c2ccccc2)C(=O)c2cccc(OC(C)=O)c2OC(C)=O)C(=O)c2cccc(OC(C)=O)c2OC(C)=O)c1OC(C)=O (stereo not shown) [Example 4, N-[3,10,17-Tris-(2,3-diacetoxybenzoyl)-3,10,17-triaza-heptadecanoyl]-cefaclor] | 0.2 µg/mL (≈ 0.156 µM) | <0.05 µg/mL | 1.56 µg/mL (≈ 1.22 µM) | 0.2 µg/mL (≈ 0.156 µM) |  | 6.25 µg/mL (≈ 4.87 µM) | 50 µg/mL (≈ 38.9 µM) |
| CCOC(=O)OC(C)OC(=O)[C@@H]1N2C(=O)[C@@H](NC(=O)[C@H](NC(=O)CN(CCCCCCN(CCCCCCNC(=O)c3cccc(OC(C)=O)c3OC(C)=O)C(=O)c3cccc(OC(C)=O)c3OC(C)=O)C(=O)c3cccc(OC(C)=O)c3OC(C)=O)c3ccccc3)[C@H]2SC1(C)C (stereo partly shown) [Example 5, N-[3,10,17-Tris-(2,3-diacetoxybenzoyl)-3,10,17-triaza-heptadecanoyl]-bacampicillin] | 100 µg/mL (≈ 72.4 µM) | 0.2 µg/mL (≈ 0.145 µM) | 25 µg/mL (≈ 18.1 µM) | 25 µg/mL (≈ 18.1 µM) | 0.4 µg/mL (≈ 0.29 µM) |  | 50 µg/mL (≈ 36.2 µM) |
| CC(=O)Oc1cccc(C(=O)NCCCN(CCCN(CC(=O)NC(C(=O)NC2C(=O)N3C2SC(C)(C)C3C(=O)O)c2ccccc2)C(=O)c2cccc(OC(C)=O)c2OC(C)=O)C(=O)c2cccc(OC(C)=O)c2OC(C)=O)c1OC(C)=O (stereo not shown) [Example 6, N-[3,7,11-Tris-(2,3-diacetoxybenzoyl)-3,7,11-triaza-undecanoyl]-ampicillin] | 1.56 µg/mL (≈ 1.32 µM) | 0.1 µg/mL (≈ 0.0847 µM) | 1.56 µg/mL (≈ 1.32 µM) | 0.2 µg/mL (≈ 0.169 µM) | 0.78 µg/mL (≈ 0.66 µM) | 6.25 µg/mL (≈ 5.29 µM) | 0.4 µg/mL (≈ 0.339 µM) |
| COC(=O)Oc1cc(Cl)cc(C(=O)N(C)CCCN(CC(=O)NC(C(=O)NC2C(=O)N3C2SC(C)(C)C3C(=O)O)c2ccccc2)C(=O)c2cc(Cl)cc(OC(=O)OC)c2OC(=O)OC)c1OC(=O)OC (stereo not shown) [Example 7, N-[3,7-Bis-(5-chlor-2,3-dimethoxycarbonyloxybenzoyl)-3,7-diaza-octanoyl]-ampicillin] | 0.05 µg/mL (≈ 0.0476 µM) | <0.005 µg/mL | 0.1 µg/mL (≈ 0.0952 µM) | <0.005 µg/mL | 0.02 µg/mL (≈ 0.019 µM) | 12.5 µg/mL (≈ 11.9 µM) | 0.02 µg/mL (≈ 0.019 µM) |
| COC(=O)Oc1cc(Br)cc(C(=O)N(C)CCCN(CC(=O)NC(C(=O)NC2C(=O)N3C2SC(C)(C)C3C(=O)O)c2ccccc2)C(=O)c2cc(Br)cc(OC(=O)OC)c2OC(=O)OC)c1OC(=O)OC (stereo not shown) [Example 8, N-{3,7-Bis-[5-brom-2,3-di-(methoxycarbonyloxy)-benzoyl]-3,7-diaza-octanoyl}-ampicillin] | <0.005 µg/mL | <0.005 µg/mL | 0.05 µg/mL (≈ 0.0439 µM) | <0.005 µg/mL | 0.02 µg/mL (≈ 0.0175 µM) | 6.25 µg/mL (≈ 5.48 µM) | 0.02 µg/mL (≈ 0.0175 µM) |
| CC(=O)Oc1cccc(C(=O)N(C)CCCN(CC(=O)N[C@@H](C(=O)N[C@@H]2C(=O)N3[C@@H]2SC(C)(C)[C@@H]3C(=O)O)c2ccccc2)C(=O)c2cccc(OC(C)=O)c2OC(C)=O)c1OC(C)=O [Example 9, N-[3,7-Bis-(2,3-diacetoxybenzoyl)-3,7-diaza-octanoyl]-ampicillin] | 0.02 µg/mL (≈ 0.0218 µM) | <0.005 µg/mL | 0.08 µg/mL (≈ 0.0872 µM) | 0.005 µg/mL (≈ 0.00545 µM) | 0.05 µg/mL (≈ 0.0545 µM) | 3.12 µg/mL (≈ 3.4 µM) | 0.02 µg/mL (≈ 0.0218 µM) |
| CC(=O)Oc1cccc(C(=O)NCCCCN(CC(=O)N[C@@H](C(=O)N[C@@H]2C(=O)N3[C@@H]2SC(C)(C)[C@@H]3C(=O)O)c2ccccc2)C(=O)c2cccc(OC(C)=O)c2OC(C)=O)c1OC(C)=O [Example 10, N-[3,8-Bis-(2,3-diacetoxybenzoyl)-3,8-diaza-octanoyl]-ampicillin] | <0.005 µg/mL | <0.005 µg/mL | 0.05 µg/mL (≈ 0.0545 µM) | <0.005 µg/mL | <0.005 µg/mL | 3.12 µg/mL (≈ 3.4 µM) | <0.005 µg/mL |
| CC(=O)Oc1cccc(C(=O)NCCCCN(CC(=O)NC(C(=O)NC2C(=O)N3C2SC(C)(C)C3C(=O)O)c2ccc(O)cc2)C(=O)c2cccc(OC(C)=O)c2OC(C)=O)c1OC(C)=O (stereo not shown) [Example 11, N-[3,8-Bis-(2,3-diacetoxybenzoyl)-3,8-diaza-octanoyl]-amoxicillin] | 0.01 µg/mL (≈ 0.0107 µM) | <0.005 µg/mL | 0.1 µg/mL (≈ 0.107 µM) | 0.01 µg/mL (≈ 0.0107 µM) | <0.005 µg/mL | 3.12 µg/mL (≈ 3.34 µM) | <0.005 µg/mL |
| COC(=O)Oc1cc(Cl)c(Cl)c(C(=O)N(C)CCCN(CC(=O)NC(C(=O)NC2C(=O)N3C2SC(C)(C)C3C(=O)O)c2ccccc2)C(=O)c2c(Cl)c(Cl)cc(OC(=O)OC)c2OC(=O)OC)c1OC(=O)OC (stereo not shown) [Example 12, N-{3,7-Bis-(2,3-dichlor-5,6-di-methoxycarbonyloxy-benzoyl)-3,7-diaza-octanoyl}-ampicillin] | 0.02 µg/mL (≈ 0.0179 µM) | <0.005 µg/mL | 0.1 µg/mL (≈ 0.0893 µM) | 0.05 µg/mL (≈ 0.0447 µM) | 0.05 µg/mL (≈ 0.0447 µM) | 3.12 µg/mL (≈ 2.79 µM) | 0.05 µg/mL (≈ 0.0447 µM) |
| CC(=O)Oc1cccc(C(=O)NCCN(CCNC(=O)c2cccc(OC(C)=O)c2OC(C)=O)CCN(CC(=O)NC(C(=O)NC2C(=O)N3C2SC(C)(C)C3C(=O)O)c2ccccc2)C(=O)c2cccc(OC(C)=O)c2OC(C)=O)c1OC(C)=O (stereo not shown) [Example 13, N-{[6-Bis-2,3-(diacetoxybenzoyl)-2-aminoethyl]-3-(2,3-diacetoxybenzoyl)-3,6-diaza-hexanoyl}-ampicillin] | 0.78 µg/mL (≈ 0.652 µM) | 0.1 µg/mL (≈ 0.0836 µM) | 3.12 µg/mL (≈ 2.61 µM) | 0.1 µg/mL (≈ 0.0836 µM) | 0.78 µg/mL (≈ 0.652 µM) | 1.56 µg/mL (≈ 1.3 µM) | 0.2 µg/mL (≈ 0.167 µM) |
| COC(=O)Oc1cccc(C(=O)NCC(O)CN(CC(=O)NC(C(=O)NC2C(=O)N3C2SC(C)(C)C3C(=O)O)c2ccccc2)C(=O)c2cccc(OC(=O)OC)c2OC(=O)OC)c1OC(=O)OC (stereo not shown) [Example 14, N-[3,7-Bis-(2,3-dimethoxycarbonyloxybenzoyl)-3,7-diaza-5-hydroxy-heptanoyl]-ampicillin] | 6.25 µg/mL (≈ 6.35 µM) | 0.2 µg/mL (≈ 0.203 µM) | 1.56 µg/mL (≈ 1.59 µM) | 0.1 µg/mL (≈ 0.102 µM) | 1.56 µg/mL (≈ 1.59 µM) | 0.4 µg/mL (≈ 0.407 µM) | 0.4 µg/mL (≈ 0.407 µM) |
